Results taken from patent US10954221B2, “GLP-1R agonists and uses thereof” (QILU REGOR THERAPEUTICS INC., priority 2019, dated 2021).

The compounds below were run against GLP1R (Homo sapiens, UniProt P43220) (assay: GLP1R cAMP assay (HTRF), HEK293/GLP-1R/CRE/Luc, Clone 4).
Chain of GLP1R (P43220 24-463): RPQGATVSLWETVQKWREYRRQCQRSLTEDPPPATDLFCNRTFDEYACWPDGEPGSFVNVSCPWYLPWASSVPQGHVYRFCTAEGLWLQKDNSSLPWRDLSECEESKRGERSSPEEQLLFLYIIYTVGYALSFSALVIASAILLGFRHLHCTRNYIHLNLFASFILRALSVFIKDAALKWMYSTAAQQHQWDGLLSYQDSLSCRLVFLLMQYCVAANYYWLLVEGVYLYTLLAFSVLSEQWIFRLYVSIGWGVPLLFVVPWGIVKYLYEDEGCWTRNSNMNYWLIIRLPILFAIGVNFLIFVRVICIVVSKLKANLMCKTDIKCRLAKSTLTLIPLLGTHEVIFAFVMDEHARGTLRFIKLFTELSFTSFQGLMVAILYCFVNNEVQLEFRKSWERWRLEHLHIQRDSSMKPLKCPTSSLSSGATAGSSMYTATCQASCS

| Structure (SMILES) | EC50 [nM] |
| --- | --- |
| O=C(O)c1ccc2nc(Cc3ccc(-c4nc(OCc5ccc(Cl)cc5F)ccc4F)cc3F)n(C[C@@H]3CCO3)c2c1 [Compound 92, (S)-2-(4-(6-((4-chloro-2-fluorobenzyl)oxy)-3-fluoropyridin-2-yl)-2-fluorobenzyl)-1-(oxetan-2-ylmethyl)-1H-benzo[d]imidazole-6-carboxylic acid] | < 15 |
| O=C(O)c1ccc2nc(CN3CC=C(c4nc(OCc5ccc(Cl)cc5F)cs4)CC3)n(C[C@@H]3CCO3)c2c1 [Compound 246, (S)-2-((4-(4-((4-chloro-2-fluorobenzyl)oxy)thiazol-2-yl)-3,6-dihydropyridin-1(2H)-yl)methyl)-1-(oxetan-2-ylmethyl)-1H-benzo[d]imidazole-6-carboxylic acid] | 15 to 150 |
| O=C(O)c1ccc2nc(CN3CC=C(c4coc(OCc5ccc(Cl)cc5F)n4)CC3)n(C[C@@H]3CCO3)c2c1 [Compound 248, (S)-2-((4-(2-((4-chloro-2-fluorobenzyl)oxy)oxazol-4-yl)-5,6-dihydropyridin-1(2H)-yl)methyl)-1-(oxetan-2-ylmethyl)-1H-benzo[d]imidazole-6-carboxylic acid] | > 1000 |
| O=C(O)c1ccc2nc(CN3CC=C(c4csc(OCc5ccc(C#CC6CC6)cc5F)n4)CC3)n(C[C@@H]3CCO3)c2c1 [Compound 249, (S)-2-((4-(2-((4-(cyclopropylethynyl)-2-fluorobenzyl)oxy)thiazol-4-yl)-3,6-dihydropyridin-1(2H)-yl)methyl)-1-(oxetan-2-ylmethyl)-1H-benzo[d]imidazole-6-carboxylic acid] | 15 to 150 |
| O=C(O)c1ccc2nc(CN3CC=C(c4csc(OCc5ccc(Cl)cn5)n4)CC3)n(C[C@@H]3CCO3)c2c1 [Compound 250, (S)-2-((4-(2-((5-chloropyridin-2-yl)methoxy)thiazol-4-yl)-3,6-dihydropyridin-1(2H)-yl)methyl)-1-(oxetan-2-ylmethyl)-1H-benzo[d]imidazole-6-carboxylic acid] | 15 to 150 |
| O=C(O)c1ccc2nc(CN3CC=C(c4csc(OCc5ccc(OC(F)(F)F)cc5)n4)CC3)n(C[C@@H]3CCO3)c2c1 [Compound 251, (S)-1-(oxetan-2-ylmethyl)-2-((4-(2-((4-(trifluoromethoxy)benzyl)oxy)thiazol-4-yl)-3,6-dihydropyridin-1(2H)-yl)methyl)-1H-benzo[d]imidazole-6-carboxylic acid] | 15 to 150 |
| O=C(O)c1ccc2nc(CN3CC=C(c4csc(OCc5ccc(F)cc5F)n4)CC3)n(C[C@@H]3CCO3)c2c1 [Compound 252, (S)-2-((4-(2-((2,4-difluorobenzyl)oxy)thiazol-4-yl)-3,6-dihydropyridin-1(2H)-yl)methyl)-1-(oxetan-2-ylmethyl)-1H-benzo[d]imidazole-6-carboxylic acid] | 15 to 150 |
| O=C(O)c1ccc2nc(CN3CC=C(c4csc(OCc5ccc(Br)cn5)n4)CC3)n(C[C@@H]3CCO3)c2c1 [Compound 253, (S)-2-((4-(2-((5-bromopyridin-2-yl)methoxy)thiazol-4-yl)-3,6-dihydropyridin-1(2H)-yl)methyl)-1-(oxetan-2-ylmethyl)-1H-benzo[d]imidazole-6-carboxylic acid] | 15 to 150 |
| O=C(O)c1ccc2nc(CN3CC=C(c4csc(OCc5ccc(F)cc5Cl)n4)CC3)n(C[C@@H]3CCO3)c2c1 [Compound 254, (S)-2-((4-(2-((2-chloro-4-fluorobenzyl)oxy)thiazol-4-yl)-3,6-dihydropyridin-1(2H)-yl)methyl)-1-(oxetan-2-ylmethyl)-1H-benzo[d]imidazole-6-carboxylic acid] | 15 to 150 |
| O=C(O)c1ccc2nc(CN3CC=C(c4csc(OCc5ccc(C(F)(F)F)nc5)n4)CC3)n(C[C@@H]3CCO3)c2c1 [Compound 255, (S)-1-(oxetan-2-ylmethyl)-2-((4-(2-((6-(trifluoromethyl)pyridin-3-yl)methoxy)thiazol-4-yl)-3,6-dihydropyridin-1(2H)-yl)methyl)-1H-benzo[d]imidazole-6-carboxylic acid] | 15 to 150 |
| O=C(O)c1ccc2nc(CN3CC=C(c4csc(OCc5ccc(C(F)(F)F)cc5)n4)CC3)n(C[C@@H]3CCO3)c2c1 [Compound 256, (S)-1-(oxetan-2-ylmethyl)-2-((4-(2-((4-(trifluoromethyl)benzyl)oxy)thiazol-4-yl)-3,6-dihydropyridin-1(2H)-yl)methyl)-1H-benzo[d]imidazole-6-carboxylic acid] | 15 to 150 |
| O=C(O)c1ccc2nc(Cc3ccc(-c4cccc(OCc5ccc(Cl)cc5F)n4)cc3Cl)n(C[C@@H]3CCO3)c2c1 [Compound 258, (S)-2-(2-chloro-4-(6-((4-chloro-2-fluorobenzyl)oxy)pyridin-2-yl)benzyl)-1-(oxetan-2-ylmethyl)-1H-benzo[d]imidazole-6-carboxylic acid] | < 15 |
| O=C(O)c1ccc2nc(Cc3ccc(-c4nccc(OCc5ccc(Cl)cc5F)n4)c(F)c3)n(C[C@@H]3CCO3)c2c1 [Compound 259, (S)-2-(4-(4-((4-chloro-2-fluorobenzyl)oxy)pyrimidin-2-yl)-3-fluorobenzyl)-1-(oxetan-2-ylmethyl)-1H-benzo[d]imidazole-6-carboxylic acid] | < 15 |
| O=C(O)c1ccc2nc(Cc3ccc(-c4nc(OCc5ccc(Cl)cc5F)c(F)cc4F)cc3F)n(C[C@@H]3CCO3)c2c1 [Compound 260, (S)-2-(4-(6-(4-chloro-2-fluorobenzyloxy)-3,5-difluoropyridin-2-yl)-2-fluorobenzyl)-1-(oxetan-2-ylmethyl)-1H-benzo[d]imidazole-6-carboxylic acid] | < 15 |
| O=C(O)c1ccc2nc(Cc3ccc(-c4nc(OCc5ccc(Cl)cc5F)ccc4F)c(F)c3)n(C[C@@H]3CCO3)c2c1 [Compound 261, (S)-2-(4-(6-(4-chloro-2-fluorobenzyloxy)-3-fluoropyridin-2-yl)-3-fluorobenzyl)-1-(oxetan-2-ylmethyl)-1H-benzo[d]imidazole-6-carboxylic acid] | < 15 |
| N#Cc1ccc(COc2nc(-c3ccc(Cc4nc5ccc(C(=O)O)cc5n4C[C@@H]4CCO4)c(F)c3)ccc2F)c(F)c1 [Compound 264, (S)-2-(4-(6-((4-cyano-2-fluorobenzyl)oxy)-5-fluoropyridin-2-yl)-2-fluorobenzyl)-1-(oxetan-2-ylmethyl)-1H-benzo[d]imidazole-6-carboxylic acid] | < 15 |

Now from value to compound:

| EC50 [nM] | Structure (SMILES) |
| --- | --- |
| < 15 | O=C(O)c1ccc2nc(Cc3ccc(-c4cncc(OCc5ccc(Cl)cc5F)n4)cc3F)n(C[C@@H]3CCO3)c2c1 [Compound 265, (S)-2-(4-(6-((4-chloro-2-fluorobenzyl)oxy)pyrazin-2-yl)-2-fluorobenzyl)-1-(oxetan-2-ylmethyl)-1H-benzo[d]imidazole-6-carboxylic acid] |
| < 15 | N#Cc1ccc(COc2ccc(F)c(-c3ccc(Cc4nc5ccc(C(=O)O)cc5n4C[C@@H]4CCO4)c(F)c3)n2)c(F)c1 [Compound 268, (S)-2-(4-(6-((4-cyano-2-fluorobenzyl)oxy)-3-fluoropyridin-2-yl)-2-fluorobenzyl)-1-(oxetan-2-ylmethyl)-1H-benzo[d]imidazole-6-carboxylic acid] |
| < 15 | O=C(O)c1ccc2nc(Cc3cc(F)c(-c4cccc(OCc5ccc(Cl)cn5)n4)cc3F)n(C[C@@H]3CCO3)c2c1 [Compound 269, (S)-2-(4-(6-((5-chloropyridin-2-yl)methoxy)pyridin-2-yl)-2,5-difluorobenzyl)-1-(oxetan-2-ylmethyl)-1H-benzo[d]imidazole-6-carboxylic acid] |
| < 15 | Cc1cc(Cc2nc3ccc(C(=O)O)cc3n2C[C@@H]2CCO2)ccc1-c1cccc(OCc2ccc(Cl)cc2F)n1 [Compound 270, (S)-2-(4-(6-((4-chloro-2-fluorobenzyl)oxy)pyridin-2-yl)-3-methylbenzyl)-1-(oxetan-2-ylmethyl)-1H-benzo[d]imidazole-6-carboxylic acid] |
| < 15 | O=C(O)c1ccc2nc(Cc3cc(F)c(-c4ncc(F)c(OCc5ncc(Cl)cc5F)n4)cc3F)n(C[C@@H]3CCO3)c2n1 [Compound 273, (S)-2-(4-(4-((5-chloro-3-fluoropyridin-2-yl)methoxy)-5-fluoropyrimidin-2-yl)-2,5-difluorobenzyl)-3-(oxetan-2-ylmethyl)-3H-imidazo[4,5-b]pyridine-5-carboxylic acid] |
| < 15 | O=C(O)c1ccc2nc(Cc3ccc(-c4cccc(OCc5ccc(F)cc5F)n4)cc3F)n(C[C@@H]3CCO3)c2c1 [Compound 274, (S)-2-(4-(6-((2,4-difluorobenzyl)oxy)pyridin-2-yl)-2-fluorobenzyl)-1-(oxetan-2-ylmethyl)-1H-benzo[d]imidazole-6-carboxylic acid] |
| < 15 | N#Cc1ccc(COc2nc(-c3cc(F)c(Cc4nc5ccc(C(=O)O)cc5n4C[C@@H]4CCO4)cc3F)ncc2F)nc1 [Compound 275, (S)-2-(4-(4-((5-cyanopyridin-2-yl)methoxy)-5-fluoropyrimidin-2-yl)-2,5-difluorobenzyl)-1-(oxetan-2-ylmethyl)-1H-benzo[d]imidazole-6-carboxylic acid] |
| < 15 | N#Cc1ccc(COc2cccc(-c3ccc(Cc4nc5ccc(C(=O)O)nc5n4C[C@@H]4CCO4)c(F)c3)n2)c(F)c1 [Compound 282, (S)-2-(4-(6-((4-cyano-2-fluorobenzyl)oxy)pyridin-2-yl)-2-fluorobenzyl)-3-(oxetan-2-ylmethyl)-3H-imidazo[4,5-b]pyridine-5-carboxylic acid] |
| < 15 | O=C(O)c1ccc2nc(Cc3ccc(-c4ccc(F)c(OCc5ccc(Cl)cc5F)n4)cc3F)n(C[C@@H]3CCO3)c2n1 [Compound 283, (S)-2-(4-(6-(4-chloro-2-fluorobenzyloxy)-5-fluoropyridin-2-yl)-2-fluorobenzyl)-3-(oxetan-2-ylmethyl)-3H-imidazo[4,5-b]pyridine-5-carboxylic acid] |
| < 15 | O=C(O)c1ccc2nc(Cc3ccc(-c4cccc(OCc5ccc(F)cc5F)n4)cc3F)n(C[C@@H]3CCO3)c2n1 [Compound 286, (S)-2-(4-(6-((2,4-difluorobenzyl)oxy)pyridin-2-yl)-2-fluorobenzyl)-3-(oxetan-2-ylmethyl)-3H-imidazo[4,5-b]pyridine-5-carboxylic acid] |
| < 15 | Cc1cc(-c2cccc(OCc3ccc(Cl)cc3F)n2)ccc1Cc1nc2ccc(C(=O)O)cc2n1C[C@@H]1CCO1 [Compound 295, (S)-2-(4-(6-((4-chloro-2-fluorobenzyl)oxy)pyridin-2-yl)-2-methylbenzyl)-1-(oxetan-2-ylmethyl)-1H-benzo[d]imidazole-6-carboxylic acid] |
